Laboratory results from ChEMBL document CHEMBL5252624, “Antifungal evaluation of quinoline-chalcone derivatives combined with FLC against drug-resistant Candida albicans” (2023).
The source made the active and inactive calls. No cut-off for these calls is given here.

Tests used:
[1] = system: Candida albicans; test: Antifungal activity against Candida albicans ATCC SC5314 assessed as fractional inhibitory concentration index in presence of fluconazole by microdilution method; type: functional
[2] = system: Candida albicans; test: Antifungal activity against Candida albicans ATCC SC5314 assessed as fungal growth inhibition in presence of fluconazole by microdilution method; type: functional
[3] = system: Candida albicans; test: Antifungal activity against Candida albicans ATCC SC5314 assessed as fungal growth inhibition by microdilution method; type: functional
[4] = system: Candida albicans; test: Antifungal activity against […] assessed as fractional inhibitory concentration index in presence of fluconazole by microdilution method; type: functional
[5] = system: Candida albicans; test: Antifungal activity against […] assessed as fungal growth inhibition in presence of fluconazole by time kill assay; type: functional, organism-based; conditions: time 72.0 hrs, TDE = time-dependent effect
[6] = system: Candida albicans; test: Downregulation of ATP level in Candida albicans; type: functional, organism-based
[7] = system: Candida albicans; test: Inhibition of biofilm formation in Candida albicans ATCC SC5314 at 32 microg/ml in presence fluconazole measured at 24 hrs; type: functional, organism-based; conditions: dose 32.0 µg/ml
[8] = system: Candida albicans; test: Antifungal activity against […] assessed as fungal growth inhibition measured for 72 hrs by time kill assay; type: functional, organism-based
[9] = system: Candida albicans; test: Induction of ROS accumulation in Candida albicans assessed as increase in intracellular ROS level in presence of fluconazole; type: functional, organism-based
[10] = system: Candida albicans; test: Downregulation of ATP level in Candida albicans in presence of fluconazole; type: functional, organism-based
[11] = system: Candida albicans; test: Antifungal activity against […] assessed as fungal growth inhibition in presence of fluconazole by microdilution method; type: functional
[12] = system: Candida albicans; test: Induction of ROS accumulation in Candida albicans assessed as increase in intracellular ROS level; type: functional, organism-based
[13] = system: Candida albicans; test: Inhibition of mitochondrial membrane potential in Candida albicans; type: functional, organism-based
[14] = system: Candida albicans; test: Inhibition of mitochondrial membrane potential in Candida albicans in presence of fluconazole; type: functional, organism-based
[15] = system: Candida albicans; test: Antifungal activity against Candida albicans ATCC SC5314 assessed as decrease in number of hypha at 32 microg/ml measured for 4 to 8 hrs in presence fluconazole of by inverted microscopic analysis; type: functional, organism-based; conditions: dose 32.0 µg/ml, time 4-8 hrs
[16] = system: Candida albicans; test: Antifungal activity against Candida albicans ATCC SC5314 assessed as reduction in hypha length at 32 microg/ml measured for 4 to 8 hrs in presence fluconazole of by inverted microscopic analysis; type: functional, organism-based; conditions: dose 32.0 µg/ml, time 4-8 hrs
[17] = system: Candida albicans; test: Antifungal activity against […] assessed as fungal growth inhibition by microdilution method; type: functional

Structure (SMILES)	FICI80 [1]	MIC80 [2] [µg/mL]	MIC80 [3] [µg/mL]	FICI80 [4]	MIC80 [11] [µg/mL]	further results
O=C(/C=C/c1cc2ccccc2nc1N1CCCCC1)c1ccc([N+](=O)[O-])cc1	2.79	5.64	> 200	2		
O=C(/C=C/c1cc2ccccc2nc1N1CCCCC1)c1ccc(F)cc1	0.48	0.96	> 200	2		
CN1CCN(c2nc3ccccc3cc2/C=C/C(=O)c2ccc([N+](=O)[O-])cc2)CC1	1.25	4.28	> 200	0.17	6.9	Activity [5]: Tde; Activity [6]: Active; inhibition [7]: Active; Activity [8]: Active; Activity [9]: Active; Activity [10]: Active; Activity [12]: inactive; inhibition [13]: inactive
Cc1cccc(C)c1Oc1nc2ccccc2cc1/C=C/C(=O)c1ccc([N+](=O)[O-])cc1	1.52	3.07	> 200	0.23		
CN1CCN(c2nc3ccccc3cc2/C=C/C(=O)c2ccc(F)cc2)CC1	1.82	3.61	85.9	0.16	6.4	inhibition [14]: Active; Activity [5]: Tde; Activity [6]: Active; inhibition [7]: Active; Activity [8]: Active; Activity [9]: Active; Activity [10]: Active; Activity [15]: Active; Activity [12]: Active; Activity [16]: Active; MIC80 [17]: > 200 µg/mL
CCN(CC)c1nc2ccccc2cc1/C=C/C(=O)c1ccc([N+](=O)[O-])cc1	1.98	3.99	> 200	2		
CCOc1nc2ccccc2cc1/C=C/C(=O)c1ccc(F)cc1	2.74	5.54	> 200	2		
OC(Cn1cncn1)(Cn1cncn1)c1ccc(F)cc1F [FLUCONAZOLE]			2.03			MIC80 [17]: > 200 µg/mL
CCN(CC)c1nc2ccccc2cc1/C=C/C(=O)c1ccc(OC(F)(F)F)cc1	0.92	1.85	> 200	0.02	4.42	
CCOc1nc2ccccc2cc1/C=C/C(=O)c1ccc([N+](=O)[O-])cc1	2.46	4.96	> 200	2		
O=C(/C=C/c1cc2ccccc2nc1N1CCCCC1)c1ccc(OC(F)(F)F)cc1	2.42	4.89	> 200	2		
CCN(CC)c1nc2ccccc2cc1/C=C/C(=O)c1ccc(F)cc1	0.93	1.87	> 200	0.03	5.36	
Cc1cccc(C)c1Oc1nc2ccccc2cc1/C=C/C(=O)c1ccc(OC(F)(F)F)cc1	1.17	2.37	> 200	2		
CCOc1nc2ccccc2cc1/C=C/C(=O)c1ccc(OC(F)(F)F)cc1	16.04	2.9	> 200	0.08	16	
Cc1cccc(C)c1Oc1nc2ccccc2cc1/C=C/C(=O)c1ccc(F)cc1	0.58	1.17	> 200	0.33	65.1	
CN1CCN(c2nc3ccccc3cc2/C=C/C(=O)c2ccc(OC(F)(F)F)cc2)CC1	2.35	4.28	17.6	0.23	6.14	MIC80 [17]: 17.8 µg/mL
